Source: patent publication US20250368628A1, “METHODS AND COMPOUNDS FOR MODULATING INHERITED GENETIC DISEASES” (Design Therapeutics, Inc., priority 2022, published 2025)
pEC50: −log10 of the molar value.

Legend:
F35T cells = assay: Foci reduction in FECD (CAG10-Cy3 FISH, foci per nucleus); format: cell-based; settings: F35T cells, 48 h treatment, foci per nucleus; read-out: FECD EC50, 48 h
How it was run: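 F35T cells, 5000 per well, were treated for 48 h at 37 °C, 5% CO2 in an 8-point dose response. Cells were then fixed in 4% PFA, permeabilized in 70% ethanol and hybridized overnight at 37 °C with a CAG10-Cy3 probe in 30% formamide/2×SSC. After DAPI staining, imaging gave foci per nucleus.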

[1] = system: Myotonic Dystrophy 1 affected patient fibroblasts (Coriel GM04602; 1600 CTG repeats); assay: DM1 foci reduction assay (EC50 assay; CAG10-Cy3 FISH, foci per nucleus); format: cell-based; settings: Homo sapiens, Fibroblast; DM1 patient fibroblasts, 48 h treatment, foci per nucleus; read-out: DM1 EC50, 48 h
How it was run: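 GM04602 DM1 patient fibroblasts (1600 CTG repeats) seeded 24 h, then treated 48 h at 37 °C with an 8-point 1:3 dose series from 3 μM. Cells PFA-fixed, ethanol-permeabilized and hybridized overnight with 5 nM CAG10-Cy3 probe, DAPI counterstained. Imaged at 20×, 4 fields per well, as average foci per nucleus.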

Cn1cc(NC(=O)c2nc(NC(=O)CCNC(=O)c3cc(NC(=O)c4nccn4C)cn3C)cn2C)cc1C(=O)NCCCC(=O)Nc1cn(C)c(C(=O)NCCC(=O)Nc2cc(C(=O)Nc3cn(C)c(C(=O)NCCCNCC#Cc4ccc(C(=O)O)cc4)n3)n(C)c2)n1 [Compound B-249]
pEC50 (F35T cells): > 7.00 | pEC50 [1]: 6.30 to 7.00

CC(=O)N1CCC(C#CC#CC2CCN(CCCNC(=O)c3nc(NC(=O)c4cc(NC(=O)CCNC(=O)c5nc(NC(=O)CCCNC(=O)c6cc(NC(=O)c7nc(NC(=O)CCNC(=O)c8cc(NC(=O)c9nccn9C)cn8C)cn7C)cn6C)cn5C)cn4C)cn3C)CC2)CC1 [Compound B-251]
pEC50 (F35T cells): > 7.00 | pEC50 [1]: > 7.00

CN(CCCNC(=O)c1cccc(C(=O)O)c1)CCCNC(=O)c1cc(NC(=O)CCNC(=O)c2nc(NC(=O)CCCNC(=O)c3cc(NC(=O)c4nc(NC(=O)CCNC(=O)c5cc(NC(=O)c6nccn6C)cn5C)cn4C)cn3CCCCCCN=[N+]=[N-])cn2C)cn1C [Compound B-253]
pEC50 (F35T cells): < 6.00 | pEC50 [1]: < 6.00

Cn1cc(NC(=O)c2nccn2C)cc1C(=O)NCCC(=O)Nc1cn(C)c(C(=O)Nc2cc(C(=O)NCCCC(=O)Nc3cn(C)c(C(=O)NCCC(=O)Nc4cc(C(=O)Nc5cn(C)c(C(=O)NCCC(=O)N6CCC(C#CC#CC7CCNCC7)CC6)n5)n(C)c4)n3)n(CCCCCCN)c2)n1 [Compound B-256]
pEC50 (F35T cells): 6.30 to 7.00 | pEC50 [1]: 6.30 to 7.00

COCCOCCOCCOCCN(CCCCCn1cc(NC(=O)c2nc(NC(=O)CCNC(=O)c3cc(NC(=O)c4nccn4C)cn3C)cn2C)cc1C(=O)NCCCC(=O)Nc1cn(C)c(C(=O)NCCC(=O)Nc2cc(C(=O)Nc3cn(C)c(C(=O)NCCC(=O)N4CCC(C#CC#CC5CCN(C(C)=O)CC5)CC4)n3)n(C)c2)n1)CCOCCOCCOCCOC [Compound B-257]
pEC50 (F35T cells): 6.30 to 7.00 | pEC50 [1]: 6.30 to 7.00

COCCOCCOCCOCCN(CCCCCn1cc(NC(=O)c2nc(NC(=O)CCNC(=O)c3cc(NC(=O)c4nccn4C)cn3C)cn2C)cc1C(=O)NCCCC(=O)Nc1cn(C)c(C(=O)NCCC(=O)Nc2cc(C(=O)Nc3cn(C)c(C(=O)NCCC(=O)N4CCC(C#CC#CC5CCNCC5)CC4)n3)n(C)c2)n1)CCOCCOCCOCCOC [Compound B-258]
pEC50 (F35T cells): 6.00 to 6.30 | pEC50 [1]: 6.00 to 6.30

COCCOCCOCCOCCN(CCOCCOCCOCCOC)C(=O)CCCCn1cc(NC(=O)c2nc(NC(=O)CCNC(=O)c3cc(NC(=O)c4nccn4C)cn3C)cn2C)cc1C(=O)NCCCC(=O)Nc1cn(C)c(C(=O)NCCC(=O)Nc2cc(C(=O)Nc3cn(C)c(C(=O)NCCC(=O)N4CCC(C#CC#CC5CCNCC5)CC4)n3)n(C)c2)n1 [Compound B-260]
pEC50 (F35T cells): 6.30 to 7.00 | pEC50 [1]: 6.30 to 7.00

CN(CCCC#Cc1cccc(C(=O)O)c1)CCCNC(=O)c1nc(NC(=O)c2cc(NC(=O)CCNC(=O)c3nc(NC(=O)CCCNC(=O)c4cc(NC(=O)c5nc(NC(=O)CCNC(=O)c6cc(NC(=O)c7nccn7C)cn6C)cn5C)cn4C)cn3C)cn2C)cn1C [Compound B-263]
pEC50 (F35T cells): > 7.00 | pEC50 [1]: 6.30 to 7.00

CCCNC(=O)CCNC(=O)c1nc(NC(=O)c2cc(NC(=O)CCNC(=O)c3nc(NC(=O)CCCNC(=O)c4cc(NC(=O)c5nc(NC(=O)CCNC(=O)c6cc(NC(=O)c7nccn7C)cn6C)cn5C)cn4CCN=[N+]=[N-])cn3C)cn2C)cn1C [Compound B-264]
pEC50 (F35T cells): > 7.00 | pEC50 [1]: > 7.00

CCCNC(=O)CCNC(=O)c1nc(NC(=O)c2cc(NC(=O)CCNC(=O)c3nc(NC(=O)CCCNC(=O)c4cc(NC(=O)c5nc(NC(=O)CCNC(=O)c6cc(NC(=O)c7nccn7C)cn6C)cn5C)cn4CCN)cn3C)cn2C)cn1C [Compound B-265]
pEC50 (F35T cells): 6.30 to 7.00 | pEC50 [1]: 6.30 to 7.00

CC(=O)N1CCC(C#CC#CC2CCN(C(=O)CCNC(=O)c3nc(NC(=O)c4cc(NC(=O)CCNC(=O)c5nc(NC(=O)CCCNC(=O)c6cc(NC(=O)c7nc(NC(=O)CCNC(=O)c8cc(NC(=O)c9nccn9C)cn8C)cn7C)cn6CCN)cn5C)cn4C)cn3C)CC2)CC1 [Compound B-266]
pEC50 (F35T cells): > 7.00 | pEC50 [1]: > 7.00

Cn1cc(NC(=O)c2nccn2C)cc1C(=O)NCCC(=O)Nc1cn(C)c(C(=O)Nc2cc(C(=O)NCCCC(=O)Nc3cn(C)c(C(=O)NCCC(=O)Nc4cc(C(=O)Nc5cn(C)c(C(=O)NCCC(=O)N6CCC(C#CC#CC7CCNCC7)CC6)n5)n(C)c4)n3)n(CCN)c2)n1 [Compound B-267]
pEC50 (F35T cells): > 7.00 | pEC50 [1]: > 7.00

CCCNC(=O)CCNC(=O)c1nc(NC(=O)c2cc(NC(=O)CCNC(=O)c3nc(NC(=O)CCCNC(=O)c4cc(NC(=O)c5nc(NC(=O)CCNC(=O)c6cc(NC(=O)c7nccn7C)cn6C)cn5C)cn4CCNC(C)=O)cn3C)cn2C)cn1C [Compound B-268]
pEC50 (F35T cells): > 7.00 | pEC50 [1]: 6.30 to 7.00

CC(=O)NCCn1cc(NC(=O)c2nc(NC(=O)CCNC(=O)c3cc(NC(=O)c4nccn4C)cn3C)cn2C)cc1C(=O)NCCCC(=O)Nc1cn(C)c(C(=O)NCCC(=O)Nc2cc(C(=O)Nc3cn(C)c(C(=O)NCCC(=O)N4CCC(C#CC#CC5CCN(C(C)=O)CC5)CC4)n3)n(C)c2)n1 [Compound B-269]
pEC50 (F35T cells): > 7.00 | pEC50 [1]: 6.30 to 7.00

CC(=O)NCCn1cc(NC(=O)c2nc(NC(=O)CCNC(=O)c3cc(NC(=O)c4nccn4C)cn3C)cn2C)cc1C(=O)NCCCC(=O)Nc1cn(C)c(C(=O)NCCC(=O)Nc2cc(C(=O)Nc3cn(C)c(C(=O)NCCC(=O)N4CCC(C#CC#CC5CCNCC5)CC4)n3)n(C)c2)n1 [Compound B-270]
pEC50 (F35T cells): 6.00 to 6.30 | pEC50 [1]: < 6.00

CCCNC(=O)CCNC(=O)c1nc(NC(=O)c2cc(NC(=O)CCNC(=O)c3nc(NC(=O)CCCNC(=O)c4cc(NC(=O)c5nc(NC(=O)CCNC(=O)c6cc(NC(=O)c7nccn7C)cn6C)cn5C)cn4CCCN=[N+]=[N-])cn3C)cn2C)cn1C [Compound B-271]
pEC50 (F35T cells): > 7.00 | pEC50 [1]: > 7.00

CCCNC(=O)CCNC(=O)c1nc(NC(=O)c2cc(NC(=O)CCNC(=O)c3nc(NC(=O)CCCNC(=O)c4cc(NC(=O)c5nc(NC(=O)CCNC(=O)c6cc(NC(=O)c7nccn7C)cn6C)cn5C)cn4CCCN)cn3C)cn2C)cn1C [Compound B-272]
pEC50 (F35T cells): > 7.00 | pEC50 [1]: 6.30 to 7.00

CCCNC(=O)CCNC(=O)c1nc(NC(=O)c2cc(NC(=O)CCNC(=O)c3nc(NC(=O)CCCNC(=O)c4cc(NC(=O)c5nc(NC(=O)CCNC(=O)c6cc(NC(=O)c7nccn7C)cn6C)cn5C)cn4CCCCN=[N+]=[N-])cn3C)cn2C)cn1C [Compound B-278]
pEC50 (F35T cells): > 7.00 | pEC50 [1]: > 7.00

CCCNC(=O)CCNC(=O)c1nc(NC(=O)c2cc(NC(=O)CCNC(=O)c3nc(NC(=O)CCCNC(=O)c4cc(NC(=O)c5nc(NC(=O)CCNC(=O)c6cc(NC(=O)c7nccn7C)cn6C)cn5C)cn4CCCCN)cn3C)cn2C)cn1C [Compound B-279]
pEC50 (F35T cells): > 7.00 | pEC50 [1]: > 7.00

CC(=O)N1CCC(C#CC#CC2CCN(C(=O)CCNC(=O)c3nc(NC(=O)c4cc(NC(=O)CCNC(=O)c5nc(NC(=O)CCCNC(=O)c6cc(NC(=O)c7nc(NC(=O)CCNC(=O)c8cc(NC(=O)c9nccn9C)cn8C)cn7C)cn6CCCCN)cn5C)cn4C)cn3C)CC2)CC1 [Compound B-280]
pEC50 (F35T cells): > 7.00 | pEC50 [1]: > 7.00

Cn1cc(NC(=O)c2nccn2C)cc1C(=O)NCCC(=O)Nc1cn(C)c(C(=O)Nc2cc(C(=O)NCCCC(=O)Nc3cn(C)c(C(=O)NCCC(=O)Nc4cc(C(=O)Nc5cn(C)c(C(=O)NCCC(=O)N6CCC(C#CC#CC7CCNCC7)CC6)n5)n(C)c4)n3)n(CCCCN)c2)n1 [Compound B-281]
pEC50 (F35T cells): > 7.00 | pEC50 [1]: > 7.00

CCCNC(=O)CCNC(=O)c1nc(NC(=O)c2cc(NC(=O)CCNC(=O)c3nc(NC(=O)CCCNC(=O)c4cc(NC(=O)c5nc(NC(=O)CCNC(=O)c6cc(NC(=O)c7nccn7C)cn6C)cn5C)cn4CCCCNC(C)=O)cn3C)cn2C)cn1C [Compound B-282]
pEC50 (F35T cells): > 7.00 | pEC50 [1]: 6.30 to 7.00

CC(=O)NCCCCn1cc(NC(=O)c2nc(NC(=O)CCNC(=O)c3cc(NC(=O)c4nccn4C)cn3C)cn2C)cc1C(=O)NCCCC(=O)Nc1cn(C)c(C(=O)NCCC(=O)Nc2cc(C(=O)Nc3cn(C)c(C(=O)NCCC(=O)N4CCC(C#CC#CC5CCN(C(C)=O)CC5)CC4)n3)n(C)c2)n1 [Compound B-283]
pEC50 (F35T cells): > 7.00 | pEC50 [1]: 6.00 to 6.30

CC(=O)NCCCCn1cc(NC(=O)c2nc(NC(=O)CCNC(=O)c3cc(NC(=O)c4nccn4C)cn3C)cn2C)cc1C(=O)NCCCC(=O)Nc1cn(C)c(C(=O)NCCC(=O)Nc2cc(C(=O)Nc3cn(C)c(C(=O)NCCC(=O)N4CCC(C#CC#CC5CCNCC5)CC4)n3)n(C)c2)n1 [Compound B-284]
pEC50 (F35T cells): > 7.00 | pEC50 [1]: > 7.00

CCCNC(=O)CCNC(=O)c1nc(NC(=O)c2cc(NC(=O)CCNC(=O)c3nc(NC(=O)CCCNC(=O)c4cc(NC(=O)c5nc(NC(=O)CCNC(=O)c6cc(NC(=O)c7nccn7C)cn6C)cn5C)cn4CCCCCN=[N+]=[N-])cn3C)cn2C)cn1C [Compound B-285]
pEC50 (F35T cells): > 7.00 | pEC50 [1]: > 7.00

CCCNC(=O)CCNC(=O)c1nc(NC(=O)c2cc(NC(=O)CCNC(=O)c3nc(NC(=O)CCCNC(=O)c4cc(NC(=O)c5nc(NC(=O)CCNC(=O)c6cc(NC(=O)c7nccn7C)cn6C)cn5C)cn4CCCCCN)cn3C)cn2C)cn1C [Compound B-286]
pEC50 (F35T cells): > 7.00 | pEC50 [1]: 6.30 to 7.00

CC(=O)NCCCCCCn1cc(NC(=O)c2nc(NC(=O)CCNC(=O)c3cc(NC(=O)c4nccn4C)cn3C)cn2C)cc1C(=O)NCCCC(=O)Nc1cn(C)c(C(=O)NCCC(=O)Nc2cc(C(=O)Nc3cn(C)c(C(=O)NCCC(=O)N4CCC(C#CC#CC5CCN(C(C)=O)CC5)CC4)n3)n(C)c2)n1 [Compound B-293]
pEC50 (F35T cells): 6.30 to 7.00 | pEC50 [1]: 6.00 to 6.30

CCCNC(=O)CCNC(=O)c1nc(NC(=O)c2cc(NC(=O)CCNC(=O)c3nc(NC(=O)CCCNC(=O)c4cc(NC(=O)c5nc(NC(=O)CCNC(=O)c6cc(NC(=O)c7nccn7C)cn6C)cn5C)cn4CCOCCN)cn3C)cn2C)cn1C [Compound B-295]
pEC50 (F35T cells): 6.30 to 7.00 | pEC50 [1]: 6.30 to 7.00
